Laboratory results reported in patent publication US20030207830A1, “Mutant NDP kinases for antiviral nucleotide analog activation and therapeutic uses thereof” (priority 2002, published 2003).

What was measured:
[1] = target: T1, Dictyostelium discoideum NDP kinase (Dd-NDPK), wild type (Dictyostelium discoideum, UniProt P22887); experiment: Pre-steady-state phosphotransfer, fluorescence stopped-flow; type: biochemical; conditions: catalytic efficiency of phosphotransfer, wt
T1 construct: made in house
T1 sequence (P22887 whole entry): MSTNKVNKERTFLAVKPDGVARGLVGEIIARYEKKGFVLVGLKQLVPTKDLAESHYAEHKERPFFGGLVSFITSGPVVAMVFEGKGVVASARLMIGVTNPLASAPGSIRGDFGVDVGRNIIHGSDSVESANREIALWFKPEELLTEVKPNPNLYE
Experimental: (§1) (A) Kinetics of reaction of phosphorylated Dictyostelium wild type and N119S NDP kinases by 100 μM Acyclovir diphosphate (Acy-DP). The phosphorylated enzyme was prepared with a stoichiometry #1 as described (Deville-Bonne 1996). The kinases were preincubated with ATP in excess in buffer T (50 mM Tris-HCl, pH 7.5, 5 mM MgCl2 and 75 mM KCl). The increase in fluorescence upon mixing the phospho-enzyme (1 μM, final concentration) with Acy-DP in buffer T at 20° C. was monitored with a stopped-flow. The solid lines represent the best fit of each curve to a monoexponential.
(§2) (B) Concentration dependence of the rate constant on Acy-DP concentation. The pseudo-first order rate constant for the reaction (kobs) was plotted against Acy-DP.
(§3) All numbers in italics have already been published (Schneider, 1998, 2000) The kinetic constants were measured at the pre-steady-state level using a fluorescence stopped-flow device. The binding constants were determined at equilibrium by recording the increase in fluorescence (Schneider, 2000). Values are the average of three independent determinations.
(§4) Wild type human NDPK-A and the mutants were expressed and purified according to Schneider et al., 2000, Mol Pharm. Recombinant wild type and mutant Dd-NDPK were obtained as described (Schneid, 1998a), except for N119Y NDP kinase which was partially purified by Q sepharose FF chromatography. Each protein was characterized by […] electrophoresis. The concentration of 17 kDa subunits of the enzyme was either determined by Bradford assay ([…]) or using an absorbance coefficient of ΔA^280=1.249 for a 1 mg/mL solution of human wild type and N115S NDPK-A, and =0.55 for wild type and mutant N119S, N119T Dd-NDP kinases, respectively.
(§5) As the diphosphate form of analogs were not always available, the triphosphate analogs were used to study phosphate transfer in reaction as in Scheme I. Experiments were performed with an Hi-Tech DX2 microvolume stopped-flow reaction (Schneider, 1998) at Aexc=296 nm (for Ado derivatives) or […] (for other nucleotides), 2 mm excitation slit and a 320 nm cutoff filter at the emission. After mixing NDPK (1 μM) and NTP or an analogTP (10-500 μM), the intrinsic protein fluorescence was recorded for 10-200 sec. In each experiment, 400 pairs of data were recorded, and the data from 3-4 identical experiments were averaged and fitted to a number of non-linear analytical equations using the software provided by Hi-Tech. All curves fitted to single exponentials.
(§6) The data were analyzed using the reaction scheme: [drawing 1]
(§7) In both the forward and the reverse reactions, the product concentration remains very low, thus the product binding can be neglected, and the observed single step could be attributed to the phosphotransfer (Schneider, 1998). The rate of this observed single step is: [formula]
(§8) and reaches a limiting value (k+2) at NTP saturation. Saturation could not be obtained with the concentrations of any NTP used here. Therefore, catalytic efficiencies of phosphorylation (CEphos=k+2/(k−1/k+1)=k+2/KS) were measured, which are equivalent to second order constants and allow a reliable comparison of a variety of NDP kinase substrates.

[2] = target: T2, Dictyostelium discoideum NDP kinase (Dd-NDPK) variant N119S, SEQ ID NO: 1 (Dictyostelium discoideum, UniProt P22887, N119S); experiment: as above; type: biochemical; conditions: for k2/Ks: catalytic efficiency of phosphotransfer, N119S, pre-steady state
T2 construct: made in house
T2 sequence (P22887 whole entry N119S): as the sequence (P22887 whole entry) above, with N119S counted along it
Experimental: as §1, §2, §3, §4, §5, §6, §7, §8

[3] = target: T3, Dictyostelium NDP Kinase wt (Dictyostelium discoideum, UniProt P22887); experiment: Pre-steady-state fluorescence stopped-flow phosphotransfer from nucleoside triphosphates, wild type Dd-NDPK; type: biochemical; conditions: average of three determinations
T3 construct: made in house
T3 sequence (P22887 whole entry): as the sequence (P22887 whole entry) above
Experimental: (§9) The binding constants were determined at equilibrium by recording the increase in fluorescence (Schneider, 2000).
After mixing NDPK (1 μM) and NTP or an analogTP (10-500 μM), the intrinsic protein fluorescence was recorded for 10-200 sec. In each experiment, 400 pairs of data were recorded, and the data from 3-4 identical experiments were averaged and fitted to a number of non-linear analytical equations using the software provided by Hi-Tech.
as §6
The rate of this observed single step is: [formula]
(§10) and reaches a limiting value (k+2) at NTP saturation. […] Therefore, catalytic efficiencies of phosphorylation (CEphos=k+2/(k−1/k+1)=k+2/KS) were measured, which are equivalent to second order constants and allow a reliable comparison of a variety of NDP kinase substrates.

[4] = target: T4, Dictyostelium NDP Kinase N119S (Dictyostelium discoideum, UniProt P22887, N119S); experiment: Pre-steady-state fluorescence stopped-flow phosphotransfer from nucleoside triphosphates, N119S Dd-NDPK; type: biochemical; conditions: pre-steady state, stopped-flow; average of three determinations
T4 construct: made in house
T4 sequence (P22887 whole entry N119S): as the sequence (P22887 whole entry) above, with N119S counted along it
Experimental: as §3, §5, §6, §7, §8

[5] = target: T5, Dictyostelium discoideum NDP kinase inactive variant EI-N119S (H122G-F64W-N119S) (Dictyostelium discoideum, UniProt P22887, F64W/H122G/N119S); experiment: biochemical; type: binding
T5 construct: made in house
T5 sequence (P22887 whole entry F64W/N119S/H122G): as the sequence (P22887 whole entry) above, with F64W, N119S, H122G counted along it
Experimental: as §9
(§11) Analog binding affinity was measured using a variant of Dd-NDPK (EI) as described (Schneider, 2000). […] The mutation N119S was inserted in EI in order to measure the nucleotide affinity by fluorescence titration.
(§12) Altered bases as compared to the wild type sequence are underlined in bold. Sequences were checked by automatic sequencing. The mutant EI-N119S was obtained by mutation of the previously described F64W-H122G mutated NDP kinase (here called EI) (Schneider 2000).

[6] = target: T6, Dictyostelium discoideum NDP kinase inactive variant EI (H122G-F64W) (Dictyostelium discoideum, UniProt P22887, F64W/H122G); experiment: biochemical; type: binding
T6 construct: made in house
T6 sequence (P22887 whole entry F64W/H122G): as the sequence (P22887 whole entry) above, with F64W, H122G counted along it
Experimental: as §9, §11, §12

[7] = target: T7, human NDP kinase A (NDPK-A, nm23-H1), wild type (Homo sapiens, UniProt P15531); experiment: Pre-steady-state phosphotransfer, fluorescence stopped-flow; type: biochemical; conditions: for k2/Ks: catalytic efficiency of phosphotransfer, NDPK-A, pre-steady state
T7 construct: made in house
T7 sequence (P15531 whole entry): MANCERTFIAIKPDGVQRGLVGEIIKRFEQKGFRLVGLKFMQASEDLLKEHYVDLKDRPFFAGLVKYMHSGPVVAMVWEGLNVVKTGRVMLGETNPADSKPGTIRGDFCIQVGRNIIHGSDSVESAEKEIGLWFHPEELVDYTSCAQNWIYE
Experimental: (§13) FIG. 3 depicts the catalytic efficiency of NDPK-A and mutants for nucleoside analogs. The rates of phosphorylation of pure recombinant NDP kinases (1 μM) were measured at the pre-steady state in a fluorescence stopped-flow with d4T-TP (10 to 80 μM). The catalytic efficiency (expressed in M^−1s^−1) was determined from the variation of the rate as a function of analog as shown in FIG. 2 (▾, NDPK-A, ♦ L55H, ● N115S, ▪ L55H-N115S).
(§14) The activity assays were performed at the pre-steady state level.
as §4
as §5, with “Hi-Tech.” for “Hi-Tech. All curves fitted to single exponentials.”
as §6, §7, §10

[8] = target: T8, human NDP kinase A (NDPK-A) variant L55H-N115S, SEQ ID NO: 3 (Homo sapiens, UniProt P15531, L55H/N115S); experiment: as above; type: biochemical; conditions: for Specificity change (R): ratio of catalytic efficiencies analog vs natural nucleotide, mutant vs wild type; for enhancement of ability to phosphorylate: substitution of Asn 115 for Ser and Leu 55 for His
T8 construct: made in house; host or cells: E. coli
T8 sequence (P15531 whole entry L55H/N115S): as the sequence (P15531 whole entry) above, with L55H, N115S counted along it
Experimental: as §13, §14
(§15) R, the specificity change, is the ratio of the catalytic efficiencies (for analog versus natural nucleotide) of the mutant compared to the wild type enzyme.
as §4
as §5, with “Hi-Tech.” for “Hi-Tech. All curves fitted to single exponentials.”
as §6, §7, §10

[9] = target: T9, human NDP kinase A (NDPK-A) variant L55H (Homo sapiens, UniProt P15531, L55H); experiment: as above; type: biochemical; conditions: for k2/Ks: catalytic efficiency of phosphotransfer; for Specificity change (R): ratio of catalytic efficiencies analog vs natural nucleotide, mutant vs wild type
T9 construct: made in house; host or cells: E. coli
T9 sequence (P15531 whole entry L55H): as the sequence (P15531 whole entry) above, with L55H counted along it
Experimental: as §13, §14, §15, §4
as §5, with “Hi-Tech.” for “Hi-Tech. All curves fitted to single exponentials.”
as §6, §7, §10

[10] = target: T10, human NDP kinase A (NDPK-A) variant N115S, SEQ ID NO: 2 (Homo sapiens, UniProt P15531, N115S); experiment: as above; type: biochemical; conditions: for k2/Ks: catalytic efficiency of phosphotransfer; for Specificity change (R): ratio of catalytic efficiencies analog vs natural nucleotide, mutant vs wild type
T10 construct: made in house; host or cells: E. coli
T10 sequence (P15531 whole entry N115S): as the sequence (P15531 whole entry) above, with N115S counted along it
Experimental: as §13, §14, §15, §4
as §5, with “Hi-Tech.” for “Hi-Tech. All curves fitted to single exponentials.”
as §6, §7, §10

SMILES | k2/Ks [1] [M⁻¹ s⁻¹] | k2/Ks [2] [M⁻¹ s⁻¹] | Kd [5] [µM] | Kd [6] [µM] | k2/Ks [7] [M⁻¹ s⁻¹] | Specificity change (R) [8] | k2/Ks ([9]; L55H, pre-steady state) [M⁻¹ s⁻¹] | Specificity change (R) [9] | k2/Ks ([10]; N115S, pre-steady state) [M⁻¹ s⁻¹] | Specificity change (R) [10] | enhancement of ability to phosphorylate [8] | further results
Nc1ncnc2c1ncn2[C@@H]1O[C@H](COP(=O)(O)OP(=O)(O)OP(=O)(O)O)[C@@H](O)[C@H]1O [ATP] | 4.5e+06 | 250000 | 2.4 | 0.2 |  |  |  |  |  |  |  | k2/Ks wt (catalytic efficiency of phosphotransfer) [3]: 4.5e+06 M⁻¹ s⁻¹; k2/Ks N119S (catalytic efficiency of phosphotransfer) [4]: 250000 M⁻¹ s⁻¹
Nc1nc2c(ncn2COCCOP(=O)(O)OP(=O)(O)OP(=O)(O)O)c(=O)[nH]1 [acyclovirTP] | 350 | 1650 | 20 | 190 | 25 | (460) | 160 | (3.4) | 250 | (150) |  | ranking as analog substrate ([2]; N119S NDP kinase): best analog substrate; k2/Ks ([8]; catalytic efficiency of phosphotransfer, L55H-N115S, pre-steady state): 2600 M⁻¹ s⁻¹; increase of affinity by Ser (N119S) ([5]; relative KD, EI versus EI-N119S): 10 fold
Nc1nc2c(ncn2COCCO)c(=O)[nH]1 [acyclovir] |  |  |  |  |  |  |  |  |  |  | 200-300 times | 
Cc1cn([C@H]2C=C[C@@H](COP(=O)(O)OP(=O)(O)OP(=O)(O)O)O2)c(=O)[nH]c1=O [d4T-TP, dideoxy, didehydro-TTP] |  |  |  |  | 700 | (210) | 1280 | (10) | 6250 | (120) |  | times more slowly than with dTTP ([7]; NDPK-A wild type): 1700 times; factor of rate versus wild type NDPK-A ([8]; L55H-N115S, pre-steady state): 80; reactivity compared with dTTP ([8]; double mutant, catalytic efficiency): eight fold less; reaction rate compared with Dd-NDPK ([9]; L55H mutant): at the same rate as Dd-NDPK; factor of rate versus wild type NDPK-A ([9]; L55H, pre-steady state): 9; factor of rate versus wild type NDPK-A ([10]; N115S, pre-steady state): 1.8
Cc1cn([C@H]2C=C[C@@H](CO)O2)c(=O)[nH]c1=O [d4T] |  |  |  |  |  |  |  |  |  |  | 200-300 times | 
